The source made the active and inactive calls. How the calls were made is not given here.
target: Ubiquitin-conjugating enzyme E2 N (Homo sapiens) (UniProt P61088); experiment: NMR detection of UBE2N ligand binding – biophysical, purified protein (AID 1552); conditions: NMR binding to purified UBE2N
Sequence (P61088 whole entry, looked up): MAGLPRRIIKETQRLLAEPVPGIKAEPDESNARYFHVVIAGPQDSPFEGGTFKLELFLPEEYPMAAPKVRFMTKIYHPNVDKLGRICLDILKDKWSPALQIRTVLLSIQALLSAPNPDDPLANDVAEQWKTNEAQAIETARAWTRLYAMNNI

SMILES	Kd
Cc1ncoc1C(=O)Nc1ccccc1C(N)=O	> 4 mM (inactive)
O=C(O)C1CCCCN1Cc1ccccc1 (stereo not given)	> 4 mM (inactive)
Cc1nn(C)c(Cl)c1S(=O)(=O)N1CCOCC1	> 4 mM (inactive)
O=C1NNC(=O)C2C3c4ccccc4C(c4ccccc43)C12 (stereo not given)	> 4 mM (inactive)
Cc1cccc(NC(=O)CN2C(=O)CNC2=O)c1	> 4 mM (inactive)
CCn1nnc(NC(=O)c2ccccc2Br)n1	> 4 mM (inactive)
CC1(NC(=O)NCc2ccccc2)CCS(=O)(=O)C1 (stereo not given)	> 4 mM (inactive)
NC1=NCc2ccccc21	> 4 mM (inactive)
CNC(=O)c1cc(C)c(-c2ccccc2)s1	> 4 mM (inactive)
CN1CCN(C(=O)c2ccccc2N)CC1	> 4 mM (inactive)
CC1(C)Cc2nc(N3CCOCC3)c(C#N)cc2CO1	> 4 mM (inactive)
Cc1ccc2nc(SCCC#N)nc(C)c2c1	> 4 mM (inactive)
NC1=NC(=O)C(Cc2cccc([N+](=O)[O-])c2)S1 (stereo not given)	> 4 mM (inactive)
Cc1cc(C(=O)Nc2ccccn2)no1	> 4 mM (inactive)
Cc1ccc(NC(=O)CC2NCCNC2=O)c(C)c1 (stereo not given)	> 4 mM (inactive)
CN1CCC(N2CCCC(C(N)=O)C2)CC1 (stereo not given)	> 4 mM (inactive)
CC(C)=CCOc1cc2oc(=O)ccc2cc1O	> 4 mM (inactive)
O=c1nc(C(F)(F)F)nc2ccccn12	> 4 mM (inactive)
CC(C)=CC1C(C(=O)O)C1(C)C (stereo not given)	> 4 mM (inactive)
CC(=O)Oc1cc2c(C(C)=O)coc2c2ccccc12	> 4 mM (inactive)
c1ccc(Cc2nnc3sc(-c4ccccn4)nn23)cc1	> 4 mM (inactive)
O=c1oc2c(O)c(O)cc3c(=O)oc4c(O)c(O)cc1c4c23	> 4 mM (inactive)
O=C(NC1=NCCS1)c1ccc(Cl)s1	> 4 mM (inactive)

SMILES	Kd
CC(=O)c1csc(-c2cc(C)on2)n1	> 4 mM (inactive)
NC(=O)CC(=O)NC12CC3CC(CC(C3)C1)C2	> 4 mM (inactive)
COc1cc(O)c(C(=O)c2ccccc2)cc1O	> 4 mM (inactive)
Cc1cc(C(=O)Nc2sc3c(c2C#N)CCC3)no1	> 4 mM (inactive)
C=CC(=O)N1CC2CC(C1)c1cccc(=O)n1C2 (stereo not given)	> 4 mM (inactive)
COC(=O)C[C@@H]1C2(C)C(=O)[C@@H](CC3C2CC[C@]2(C)C3CC(=O)O[C@H]2c2ccoc2)[C@H](OC(C)=O)C1(C)C (stereo not given in full)	> 4 mM (inactive)
Cc1cc(N)n(C2CCOC(C)(C)C2)n1 (stereo not given)	> 4 mM (inactive)
O=c1ccc2cc(O)c(O)cc2o1	> 4 mM (inactive)
Cc1occc1C(=O)NCc1ccccc1F	> 4 mM (inactive)
COc1ccc2cnn(-c3ccccc3)c(=O)c2c1OC	> 4 mM (inactive)
CSc1nnc2c(n1)OC(C)=Nc1ccccc1-2	> 4 mM (inactive)
Cc1oc(-c2ccccc2)cc1C(N)=O	> 4 mM (inactive)
Cc1nc(N)sc1C(=O)Nc1nccs1	> 4 mM (inactive)
COc1ccc(-c2oc3cc(O[C@H]4O[C@H](CO)[C@@H](O)[C@H](O)[C@H]4O)c(OC)c(O)c3c(=O)c2OC)cc1O	> 4 mM (inactive)
O=C(Nc1ccc2c(c1)OCO2)c1ccc(=O)[nH]n1	> 4 mM (inactive)
Cc1cc(C)nc(Nc2n[nH]c(Cc3ccccc3)n2)n1	> 4 mM (inactive)
CNC(=S)Nc1ccc(OC)cc1C	> 4 mM (inactive)
NC(=O)C1(S(=O)(=O)c2ccccc2)CC1	> 4 mM (inactive)
O=C1c2cccc3cc(S(=O)(=O)O)cc(c23)C(=O)N1O	> 4 mM (inactive)
Cc1ccc(NC(=O)C(=O)Nc2ccccn2)cc1	> 4 mM (inactive)
CN1C(=O)CC[C@H]1c1cccnc1	> 4 mM (inactive)
O=C(NC1CC1)c1ccccc1[N+](=O)[O-]	> 4 mM (inactive)
O=C1NC(=S)N/C1=C\c1ccccc1	> 4 mM (inactive)

SMILES	Kd
O=C(CS(=O)(=O)c1ccccc1)N1CCCCCC1	> 4 mM (inactive)
O=C(O)CN1C(=O)c2cccc([N+](=O)[O-])c2C1=O	> 4 mM (inactive)
Cn1c(=O)n(C)c2nc([N+](=O)[O-])c(Cl)cc21	> 4 mM (inactive)
CS/C(N)=C\C(C)=O	> 4 mM (inactive)
O=C(O)C1CSC2(CCCCC2)N1 (stereo not given)	> 4 mM (inactive)
NC(=O)CC1Sc2ccccc2NC1=O (stereo not given)	> 4 mM (inactive)
COc1ccc2c(c1)OC1(O)COc3cc(OC)c(OC)cc3C1=C2 (stereo not given)	> 4 mM (inactive)
O=C(/C=C(\O)c1ccccc1)c1ccccc1O	> 4 mM (inactive)
NC(=O)C1CCN(C(=S)c2ccccc2)CC1	> 4 mM (inactive)
CCOC(=O)c1c(C)nc2ncccn12	> 4 mM (inactive)
CC1(C)CC2C1CCC1(C)OC1CCC2(C)O (stereo not given)	> 4 mM (inactive)
COc1ccc2[nH]cc(CCN(C)C)c2c1	> 4 mM (inactive)
COC1C(O)C(O)C(O)[C@@H](O)C1O (stereo not given in full)	> 4 mM (inactive)
COc1cc2occc2c2oc(=O)ccc12	> 4 mM (inactive)
N#CCSc1nc(-c2ccccc2)cs1	> 4 mM (inactive)
CS(=O)(=O)N1CCN(c2ncccn2)CC1	> 4 mM (inactive)
OC1CCN(c2nccc(C(F)(F)F)n2)CC1	> 4 mM (inactive)
COc1ccccc1-c1cn[nH]c(=S)n1	> 4 mM (inactive)
CCOC(=O)CNC(=O)CSc1nnc(C)c(=O)[nH]1	> 4 mM (inactive)
CCOC(=O)C1CCN(c2ncnc3nc[nH]c23)CC1	> 4 mM (inactive)
COc1cc2c(cc1OC)Cc1cc(OC)c(OC)cc1Cc1cc(OC)c(OC)cc1C2	> 4 mM (inactive)
Cc1n[nH]c(=S)n1-c1ccc(C(=O)O)cc1	> 4 mM (inactive)
O=C(O)c1cccc(CSc2ncccn2)c1	> 4 mM (inactive)

SMILES	Kd
O=C1CS/C(=N/N=C/c2cccs2)N1	> 4 mM (inactive)
Cc1cc2c(N)cccc2nn1	> 4 mM (inactive)
NCCc1nc2ccccc2[nH]1	> 4 mM (inactive)
Cn1c(C(=O)O)ccc1S(N)(=O)=O	> 4 mM (inactive)
NC(=O)c1ccc2c(c1)OCO2	> 4 mM (inactive)
CC(=O)Nc1cccc(-c2n[nH]c(=S)n2C)c1	> 4 mM (inactive)
CC(C)Nc1ncnc2c1nnn2C	> 4 mM (inactive)
CC(=O)NN1C(=O)c2cccc3cccc(c23)C1=O	> 4 mM (inactive)
CCC[C@@H]1CCCCN1	> 4 mM (inactive)
CC(=O)O[C@H]1C[C@@H](OC(C)=O)C(C)(C)C2C[C@@H](OC(C)=O)[C@]3(C)C([C@H](OC(C)=O)C[C@@]4(C)[C@H](c5ccoc5)OC(=O)[C@H]5O[C@]543)[C@]21C (stereo not given in full)	> 4 mM (inactive)
COc1ccc([C@@H]2CC(=O)c3c(O)cc(O[C@@H]4O[C@H](CO[C@H]5O[C@@H](C)[C@H](O)[C@@H](O)[C@H]5O)[C@@H](O)[C@H](O)[C@H]4O)cc3O2)cc1O	> 4 mM (inactive)
O=C(c1ccccc1-c1ccccc1)N1CCOCC1	> 4 mM (inactive)
CCOC(=O)c1c(SC)nc(=O)[nH]c1C	> 4 mM (inactive)
NC(=O)CSc1nnc(-c2cccnc2)o1	> 4 mM (inactive)
COC(=O)/C(C)=C\CC12OC(C)(C)C3CC(C=C4C(=O)c5c(OC)c6c(c(CC=C(C)C)c5OC431)OC(C)(CCC=C(C)C)C=C6)C2=O (stereo not given)	> 4 mM (inactive)
CN1CCN(c2ccc(C(=O)O)cc2)CC1	> 4 mM (inactive)
CCOC(=O)C1CCN(Cc2ccccc2)CC1=O (stereo not given)	> 4 mM (inactive)
COC(=O)CCC(C)[C@H]1CCC2C3C(C[C@H](O)[C@@]21C)[C@@]1(C)CC[C@@H](O)C[C@H]1C[C@H]3O (stereo not given in full)	> 4 mM (inactive)
CC(=O)NC(=S)Nc1cccc(C(=O)O)c1C	> 4 mM (inactive)
COC(=O)CCSCC(=O)Nc1nnc(C)s1	> 4 mM (inactive)
Cc1ccc(C(=O)Nc2nnc(-c3ccncc3)s2)o1	> 4 mM (inactive)
COc1ccc2c(c1)C(NC(C)=O)C(=O)N2C (stereo not given)	> 4 mM (inactive)
COCC(=O)OCn1nnc2ccccc2c1=O	> 4 mM (inactive)

SMILES	Kd
COc1ccc(-c2coc3cc(OC(C)=O)cc(OC(C)=O)c3c2=O)cc1	> 4 mM (inactive)
C[C@@H]1CC[C@@]2(NC1)O[C@H]1C[C@H]3C4CC=C5C[C@@H](O)CC[C@]5(C)C4CC[C@]3(C)C1[C@@H]2C (stereo not given in full)	> 4 mM (inactive)
COc1ccc(-c2coc3cc(OC)cc(OC)c3c2=O)cc1	> 4 mM (inactive)
Nc1nnc(SCc2ccc3c(c2)OCO3)s1	> 4 mM (inactive)
CN(C)C(=O)Oc1cccc(-c2nnco2)c1	> 4 mM (inactive)
O=C1CCNc2cc3ccccc3cc21	> 4 mM (inactive)
COc1ccc(C2(C)CC(=O)NC2=O)cc1 (stereo not given)	> 4 mM (inactive)
CC1(C)C2C[C@@H](O)[C@]3(C)C(CC[C@@]4(C)[C@H](c5ccoc5)OC(=O)[C@H]5O[C@]543)[C@@]2(C)[C@@H](O)C[C@H]1O (stereo not given in full)	> 4 mM (inactive)
COc1cc2[nH]c(=S)n(C)c(=O)c2cc1OC	> 4 mM (inactive)
O=C1c2ccccc2C(=O)N1/N=C/c1ccc[nH]1	> 4 mM (inactive)
CN1CCn2c1nc(N1CCCCC1)nc2=O	> 4 mM (inactive)
O=c1[nH]cc(CN2CCOCC2)c(=O)[nH]1	> 4 mM (inactive)
Cc1nn(C)c(Cl)c1C(O)c1c(C)nn(C)c1Cl	> 4 mM (inactive)
CC(=O)c1c(C)nc(C)nc1NC(=O)C(C)C	> 4 mM (inactive)
NC(=O)c1ccc(-c2csnn2)cc1	> 4 mM (inactive)
CCOc1ccc(C(=O)c2ccncc2)cc1	> 4 mM (inactive)
COC(=O)c1noc(C)c1C(C)=O	> 4 mM (inactive)
O=c1c(-c2cccs2)[n+]([O-])c2ccccc2n1O	> 4 mM (inactive)
Cc1cc(F)c(F)c(C(=O)NC2CC2)c1Cl	> 4 mM (inactive)
O=C1CSC(=NC(=O)c2ccccc2)N1	> 4 mM (inactive)
O=C(Nc1ccc2c(c1)OCO2)c1cnn2cccnc12	> 4 mM (inactive)
Cn1cnc2c1c(=O)[nH]c(=O)n2C	> 4 mM (inactive)
Nc1nc2[nH]c(=O)c(=O)[nH]c2c(=O)[nH]1	> 4 mM (inactive)

— PubChem BioAssay AID1552 (Sanford-Burnham Center for Chemical Genomics, 2009)
